Laboratory results: ChEMBL document CHEMBL1201862, “PubChem BioAssay data set” (2004)
The source made the active and inactive calls.

Tests used:
Bcl-2-like protein 10 = biological target: T1, Bcl-2-like protein 10 (Homo sapiens, UniProt Q9HD36); assay: Biochemical TR3 FP assay of Bcl-B inhibitor potency, EC50 (AID 1243); type: functional
T1 sequence (Q9HD36 whole entry): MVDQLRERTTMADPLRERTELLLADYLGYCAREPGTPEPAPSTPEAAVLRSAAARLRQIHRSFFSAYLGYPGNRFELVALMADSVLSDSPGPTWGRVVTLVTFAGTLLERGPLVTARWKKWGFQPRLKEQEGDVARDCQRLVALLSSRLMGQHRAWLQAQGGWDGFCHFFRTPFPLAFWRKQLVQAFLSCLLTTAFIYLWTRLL

Beta-lactamase [1] = biological target: Beta-lactamase (Salmonella choleraesuis (strain SC-B67), UniProt Q5J463); assay: Epi-absorbance-based counterscreen for selective VIM-2 inhibitors: dose response biochemical high throughput screening assay to identify inhibitors of TEM-1 serine-beta-lactamase.
Leucine aminopeptidase = biological target: T2, Leucine aminopeptidase (Plasmodium falciparum 3D7, UniProt Q8IL11); assay: P. falciparum M17LAP inhibitors, primary screen, biochemical, fluorogenic H-Leu-NHMec substrate, 1536-well (AID 1619); type: functional
T2 sequence (Q8IL11 whole entry): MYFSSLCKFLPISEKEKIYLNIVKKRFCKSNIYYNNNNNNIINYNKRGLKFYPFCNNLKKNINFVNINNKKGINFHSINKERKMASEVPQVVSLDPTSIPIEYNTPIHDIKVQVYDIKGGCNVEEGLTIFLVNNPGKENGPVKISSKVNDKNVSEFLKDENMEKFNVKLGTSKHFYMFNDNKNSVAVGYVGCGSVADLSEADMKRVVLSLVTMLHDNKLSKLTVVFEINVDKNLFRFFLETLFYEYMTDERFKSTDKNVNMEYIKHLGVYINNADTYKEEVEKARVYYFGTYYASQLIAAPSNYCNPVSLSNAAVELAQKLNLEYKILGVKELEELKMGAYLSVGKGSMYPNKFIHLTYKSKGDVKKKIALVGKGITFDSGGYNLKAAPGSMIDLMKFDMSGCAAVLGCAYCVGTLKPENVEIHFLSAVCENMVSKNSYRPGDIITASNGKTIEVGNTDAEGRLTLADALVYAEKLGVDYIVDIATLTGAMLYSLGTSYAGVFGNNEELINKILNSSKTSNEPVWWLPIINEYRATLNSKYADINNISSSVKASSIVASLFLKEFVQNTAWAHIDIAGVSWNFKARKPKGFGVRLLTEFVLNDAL

Beta-lactamase [2] = biological target: T3, Beta-lactamase (Pseudomonas aeruginosa, UniProt Q79MP6); assay: IMP-1 metallo-beta-lactamase inhibitors, dose response, selectivity assay for VIM-2 inhibitor project, biochemical, epi-absorbance (AID 1920)
Beta Lactamase [3] = biological target: T4, Beta Lactamase (Pseudomonas aeruginosa, UniProt Q932Y6); assay: VIM-2 metallo-beta-lactamase inhibitor potency, dose response, biochemical, epi-absorbance readout, selective inhibitors (AID 1919)
[4] = HIV-1 Env-mediated cell fusion inhibitors, dose response, CCR5-tropic Env (AID 2279); type: functional
Beta-lactamase [5] = biological target: T3, Beta-lactamase; assay: […] counterscreen for selective VIM-2 inhibitors: dose response biochemical high throughput screening assay to identify inhibitors of IMP-1 metallo-beta-lactamase.
Beta Lactamase [6] = biological target: T4, Beta Lactamase; assay: VIM-2 inhibitor FRET-based artefact check, dose response, artefact control for selective VIM-2 inhibitor project, biochemical, FRET readout, CCF2 substrate (AID 1926)
[7] = biological target: T5, Calpain-2 catalytic subunit (Sus scrofa, UniProt P43367); assay: pig calpain II inhibitor potency, dose response, biochemical, fluorogenic peptide substrate (AID 1420); type: functional
T5 sequence (P43367 whole entry): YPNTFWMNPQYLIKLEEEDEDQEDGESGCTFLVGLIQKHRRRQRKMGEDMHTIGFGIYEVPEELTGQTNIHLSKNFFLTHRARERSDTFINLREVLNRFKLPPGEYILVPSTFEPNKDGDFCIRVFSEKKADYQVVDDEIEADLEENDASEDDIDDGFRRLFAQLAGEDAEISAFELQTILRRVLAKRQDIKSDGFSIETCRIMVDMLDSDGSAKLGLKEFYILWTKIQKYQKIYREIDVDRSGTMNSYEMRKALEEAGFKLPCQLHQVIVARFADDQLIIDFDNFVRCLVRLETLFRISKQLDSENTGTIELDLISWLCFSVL

[8] = biological target: T6, Probable nicotinate-nucleotide adenylyltransferase (Staphylococcus aureus (strain N315), UniProt P65502); type: functional, Staphylococcus aureus subsp. aureus N315;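 as to IC50 Mean: confirmatory dose-response retesting of NadD inhibitor hits first found in an ultra-high-throughput screen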
[9] = biological target: T6, Probable nicotinate-nucleotide adenylyltransferase; type: functional, Staphylococcus aureus subsp. aureus N315; details: read-out: IC50_Mean
Aminopeptidase N = biological target: T7, Aminopeptidase N (Plasmodium falciparum FcB1/Columbia, UniProt O96935); assay: P. falciparum M1AAP inhibitors, biochemical, fluorogenic H-Leu-NHMec substrate, 1536-well (AID 1445); parameters: species or system Plasmodium falciparum 3D7, 3D7
T7 sequence (O96935 whole entry): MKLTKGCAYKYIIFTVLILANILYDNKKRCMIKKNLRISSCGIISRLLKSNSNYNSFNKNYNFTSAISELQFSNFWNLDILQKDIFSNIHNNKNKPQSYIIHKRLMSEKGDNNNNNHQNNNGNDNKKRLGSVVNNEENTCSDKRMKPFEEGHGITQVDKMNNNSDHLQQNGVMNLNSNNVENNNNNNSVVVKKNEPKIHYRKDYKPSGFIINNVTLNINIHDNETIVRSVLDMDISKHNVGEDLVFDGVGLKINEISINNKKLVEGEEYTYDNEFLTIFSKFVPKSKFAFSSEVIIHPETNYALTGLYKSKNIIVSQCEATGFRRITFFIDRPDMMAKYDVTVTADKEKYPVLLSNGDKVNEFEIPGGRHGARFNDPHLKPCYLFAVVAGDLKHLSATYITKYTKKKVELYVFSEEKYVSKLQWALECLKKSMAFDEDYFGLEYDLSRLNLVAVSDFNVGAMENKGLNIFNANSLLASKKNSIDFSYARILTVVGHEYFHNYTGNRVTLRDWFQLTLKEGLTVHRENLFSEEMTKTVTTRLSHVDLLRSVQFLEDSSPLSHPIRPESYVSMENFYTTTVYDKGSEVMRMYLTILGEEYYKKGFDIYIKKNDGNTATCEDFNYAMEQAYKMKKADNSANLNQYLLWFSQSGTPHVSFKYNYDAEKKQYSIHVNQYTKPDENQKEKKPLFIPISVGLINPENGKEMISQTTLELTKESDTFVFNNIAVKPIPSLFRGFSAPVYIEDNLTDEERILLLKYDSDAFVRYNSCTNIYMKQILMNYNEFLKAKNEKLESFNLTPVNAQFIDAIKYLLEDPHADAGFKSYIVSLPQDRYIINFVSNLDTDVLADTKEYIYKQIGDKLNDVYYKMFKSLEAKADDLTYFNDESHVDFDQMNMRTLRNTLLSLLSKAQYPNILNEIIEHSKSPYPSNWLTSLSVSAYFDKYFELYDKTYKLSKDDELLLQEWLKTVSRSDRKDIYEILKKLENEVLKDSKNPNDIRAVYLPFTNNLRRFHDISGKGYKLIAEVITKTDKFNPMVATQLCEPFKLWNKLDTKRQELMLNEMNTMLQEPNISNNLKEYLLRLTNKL

[10] = inhibitors of Bluetongue virus cytopathic effect, confirmation, arbovirus, BSR cells (AID 1250); type: functional;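 also: protection from viral cytopathic effect measured as cell viability by ATP luminescence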
[11] = biological target: Induced myeloid leukemia cell differentiation protein Mcl-1 (Homo sapiens, UniProt Q07820); type: functional
[12] = biological target: DNA (cytosine-5)-methyltransferase 1 (Homo sapiens, UniProt P26358); assay: DNMT1 methyltransferase inhibitors, confirmation, biochemical, fluorescent molecular beacon (AID 602386); type: functional
[13] = biological target: 26S proteasome non-ATPase regulatory subunit 14 (Homo sapiens, UniProt O00487); assay: inhibition of proteasome subunit RPN11 – biochemical, fluorescence polarization, uHTS hits, confirmation (AID 602368); type: functional
[14] = biological target: 72 kDa type IV collagenase (Homo sapiens, UniProt P08253); assay: Dose Response validation of uHTS RPN11 inhibitor hits using a MMP-2 Fluorescence assay.; type: functional
Prothrombin = Prothrombin (Bos taurus, UniProt P00735); assay: thrombin inhibition, dose response, biochemical, fluorescence polarization, uHTS hits (AID 602369); type: functional
[15] = biological target: T8, Histone-lysine N-methyltransferase NSD2 (Homo sapiens, UniProt O96028); type: biochemical
T8 sequence (O96028 whole entry): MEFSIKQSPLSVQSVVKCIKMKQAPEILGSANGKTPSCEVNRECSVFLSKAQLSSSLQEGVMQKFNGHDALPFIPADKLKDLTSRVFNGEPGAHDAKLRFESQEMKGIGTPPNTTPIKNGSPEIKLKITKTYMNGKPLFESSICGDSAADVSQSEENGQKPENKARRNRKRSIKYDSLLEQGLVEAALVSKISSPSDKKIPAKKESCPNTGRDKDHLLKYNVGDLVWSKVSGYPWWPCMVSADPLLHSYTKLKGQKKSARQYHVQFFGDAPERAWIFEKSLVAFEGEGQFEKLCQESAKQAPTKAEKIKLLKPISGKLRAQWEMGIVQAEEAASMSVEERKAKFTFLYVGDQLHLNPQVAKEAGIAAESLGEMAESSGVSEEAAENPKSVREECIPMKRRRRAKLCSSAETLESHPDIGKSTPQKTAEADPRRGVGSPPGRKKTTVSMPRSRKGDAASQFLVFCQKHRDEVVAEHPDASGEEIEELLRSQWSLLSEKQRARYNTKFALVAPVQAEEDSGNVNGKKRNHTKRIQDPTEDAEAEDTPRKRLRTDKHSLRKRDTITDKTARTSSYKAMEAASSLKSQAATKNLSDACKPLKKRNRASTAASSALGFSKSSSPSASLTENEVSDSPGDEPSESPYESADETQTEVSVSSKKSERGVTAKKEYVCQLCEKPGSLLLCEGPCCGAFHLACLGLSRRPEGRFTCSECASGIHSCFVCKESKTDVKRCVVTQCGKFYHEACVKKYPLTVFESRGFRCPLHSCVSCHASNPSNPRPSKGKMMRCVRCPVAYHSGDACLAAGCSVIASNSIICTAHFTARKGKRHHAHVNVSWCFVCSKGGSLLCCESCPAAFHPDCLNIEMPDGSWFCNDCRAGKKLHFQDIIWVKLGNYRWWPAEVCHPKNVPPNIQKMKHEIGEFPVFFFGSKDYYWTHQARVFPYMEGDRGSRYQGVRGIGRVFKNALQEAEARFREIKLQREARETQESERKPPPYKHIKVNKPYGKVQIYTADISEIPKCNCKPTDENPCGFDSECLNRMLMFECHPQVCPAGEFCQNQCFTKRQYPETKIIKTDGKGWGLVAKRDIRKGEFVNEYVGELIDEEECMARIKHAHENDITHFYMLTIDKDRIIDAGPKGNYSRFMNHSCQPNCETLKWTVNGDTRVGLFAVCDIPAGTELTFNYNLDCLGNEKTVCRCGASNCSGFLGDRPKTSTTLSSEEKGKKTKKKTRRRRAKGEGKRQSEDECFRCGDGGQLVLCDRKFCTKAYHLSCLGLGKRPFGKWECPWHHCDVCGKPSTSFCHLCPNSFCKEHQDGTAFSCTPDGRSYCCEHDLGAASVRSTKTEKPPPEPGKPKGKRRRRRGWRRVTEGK

[16] = biological target: Muscarinic acetylcholine receptor M2 (Homo sapiens, UniProt P08172); assay: Discovery of novel allosteric modulators of the M1 muscarinic receptor: Agonist NMS competition at M2. [Related pubchem assays: 626 (Discovery of Novel Allosteric Modulators of the M1 Muscarinic Receptor: Agonist Primary Screen), 1488 (Discovery of novel allosteric modulators of the M1 muscarinic receptor: Agonist Confirmation Assay)]; type: functional
[17] = biological target: Muscarinic acetylcholine receptor M5 (Homo sapiens, UniProt P08912); assay: (§1) Discovery of novel allosteric modulators of the M1 muscarinic receptor: Agonist NMS competition at M5. [Related pubchem assays: 1488 (Discovery of novel allosteric modulators of the M1 muscarinic receptor: Agonist Confirmation Assay), 626 (Discovery of Novel Allosteric Modulators of the M1 Muscarinic Receptor: Agonist Primary Screen)]; type: functional
[18] = biological target: Muscarinic acetylcholine receptor M3 (Homo sapiens, UniProt P20309); assay: as §1, with “M3.” for “M5.”; type: functional
[19] = biological target: Muscarinic acetylcholine receptor M1 (Rattus norvegicus, UniProt P08482); assay: Discovery of novel allosteric modulators of the M1 muscarinic receptor: Agonist NMS binding at M1. [Related pubchem assays: 626 ]
[20] = A Cell Based Secondary Assay To Explore Cytotoxicity of Compounds that Sensitize Mycobacterium Tuberculosis to Beta-Lactam Antibiotics.; type: functional

T4 sequence (Q932Y6 whole entry, the tested form may be a part): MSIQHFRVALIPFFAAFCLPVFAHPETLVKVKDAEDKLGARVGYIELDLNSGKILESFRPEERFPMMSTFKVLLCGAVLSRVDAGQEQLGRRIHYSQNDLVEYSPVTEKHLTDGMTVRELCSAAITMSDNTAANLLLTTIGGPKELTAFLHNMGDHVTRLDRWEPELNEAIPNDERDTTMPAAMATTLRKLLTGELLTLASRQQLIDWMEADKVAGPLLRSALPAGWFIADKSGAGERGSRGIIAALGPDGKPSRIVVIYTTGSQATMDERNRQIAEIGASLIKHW
T3 sequence (Q79MP6 whole entry): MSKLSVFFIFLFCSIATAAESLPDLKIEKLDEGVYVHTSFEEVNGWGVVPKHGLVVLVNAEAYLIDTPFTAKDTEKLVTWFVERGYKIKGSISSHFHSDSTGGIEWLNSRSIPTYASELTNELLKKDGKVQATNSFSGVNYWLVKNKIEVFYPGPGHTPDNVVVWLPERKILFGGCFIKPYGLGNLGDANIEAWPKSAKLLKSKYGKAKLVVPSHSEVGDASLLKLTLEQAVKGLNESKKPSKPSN
T6 sequence (P65502 whole entry): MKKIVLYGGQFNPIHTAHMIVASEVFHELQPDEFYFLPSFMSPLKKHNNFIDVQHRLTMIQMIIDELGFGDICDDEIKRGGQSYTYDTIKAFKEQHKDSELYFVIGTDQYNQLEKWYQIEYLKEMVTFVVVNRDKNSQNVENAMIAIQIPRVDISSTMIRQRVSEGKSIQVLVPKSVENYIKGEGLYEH
Sequence of 72 kDa type IV collagenase (P08253 whole entry): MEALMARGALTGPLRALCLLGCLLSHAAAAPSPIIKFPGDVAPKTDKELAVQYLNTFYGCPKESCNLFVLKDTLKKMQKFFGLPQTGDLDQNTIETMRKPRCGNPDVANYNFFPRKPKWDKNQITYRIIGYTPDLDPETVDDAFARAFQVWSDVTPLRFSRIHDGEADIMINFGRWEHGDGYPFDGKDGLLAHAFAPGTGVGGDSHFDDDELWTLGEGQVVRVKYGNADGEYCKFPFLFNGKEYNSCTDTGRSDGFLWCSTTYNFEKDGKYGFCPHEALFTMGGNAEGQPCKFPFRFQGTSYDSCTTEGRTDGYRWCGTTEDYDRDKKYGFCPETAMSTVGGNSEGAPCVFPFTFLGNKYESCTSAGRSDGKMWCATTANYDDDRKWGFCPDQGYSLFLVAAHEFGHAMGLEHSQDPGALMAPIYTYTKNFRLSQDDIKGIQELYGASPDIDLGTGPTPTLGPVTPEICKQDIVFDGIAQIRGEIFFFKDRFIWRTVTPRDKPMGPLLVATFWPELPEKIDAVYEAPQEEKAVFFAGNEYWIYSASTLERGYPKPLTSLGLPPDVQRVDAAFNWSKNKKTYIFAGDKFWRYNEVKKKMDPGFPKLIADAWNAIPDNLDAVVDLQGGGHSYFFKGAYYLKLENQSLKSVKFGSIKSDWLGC
Sequence of Beta-lactamase (Salmonella choleraesuis (strain SC-B67), UniProt Q5J463) (Q5J463 whole entry): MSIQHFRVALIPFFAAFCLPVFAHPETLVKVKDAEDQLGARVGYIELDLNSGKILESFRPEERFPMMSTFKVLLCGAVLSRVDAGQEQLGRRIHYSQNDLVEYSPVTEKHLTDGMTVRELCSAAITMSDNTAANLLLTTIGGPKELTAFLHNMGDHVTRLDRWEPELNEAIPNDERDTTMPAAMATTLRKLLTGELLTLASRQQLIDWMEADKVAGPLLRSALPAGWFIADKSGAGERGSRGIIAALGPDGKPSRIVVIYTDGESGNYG
Sequence of Muscarinic acetylcholine receptor M2 (P08172 whole entry): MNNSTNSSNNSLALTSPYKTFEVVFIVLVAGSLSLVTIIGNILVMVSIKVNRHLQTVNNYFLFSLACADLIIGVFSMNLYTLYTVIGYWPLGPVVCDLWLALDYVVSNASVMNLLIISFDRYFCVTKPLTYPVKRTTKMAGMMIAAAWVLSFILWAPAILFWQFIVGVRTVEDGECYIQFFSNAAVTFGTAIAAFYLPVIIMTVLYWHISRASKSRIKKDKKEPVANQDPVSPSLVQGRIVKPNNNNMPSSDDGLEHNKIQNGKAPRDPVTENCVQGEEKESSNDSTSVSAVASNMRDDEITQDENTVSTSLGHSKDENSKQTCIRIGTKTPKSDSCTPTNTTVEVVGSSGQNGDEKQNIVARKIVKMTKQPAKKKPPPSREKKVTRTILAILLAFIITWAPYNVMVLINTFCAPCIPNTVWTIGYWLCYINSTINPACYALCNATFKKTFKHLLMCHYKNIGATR
Sequence of DNA (cytosine-5)-methyltransferase 1 (P26358 whole entry): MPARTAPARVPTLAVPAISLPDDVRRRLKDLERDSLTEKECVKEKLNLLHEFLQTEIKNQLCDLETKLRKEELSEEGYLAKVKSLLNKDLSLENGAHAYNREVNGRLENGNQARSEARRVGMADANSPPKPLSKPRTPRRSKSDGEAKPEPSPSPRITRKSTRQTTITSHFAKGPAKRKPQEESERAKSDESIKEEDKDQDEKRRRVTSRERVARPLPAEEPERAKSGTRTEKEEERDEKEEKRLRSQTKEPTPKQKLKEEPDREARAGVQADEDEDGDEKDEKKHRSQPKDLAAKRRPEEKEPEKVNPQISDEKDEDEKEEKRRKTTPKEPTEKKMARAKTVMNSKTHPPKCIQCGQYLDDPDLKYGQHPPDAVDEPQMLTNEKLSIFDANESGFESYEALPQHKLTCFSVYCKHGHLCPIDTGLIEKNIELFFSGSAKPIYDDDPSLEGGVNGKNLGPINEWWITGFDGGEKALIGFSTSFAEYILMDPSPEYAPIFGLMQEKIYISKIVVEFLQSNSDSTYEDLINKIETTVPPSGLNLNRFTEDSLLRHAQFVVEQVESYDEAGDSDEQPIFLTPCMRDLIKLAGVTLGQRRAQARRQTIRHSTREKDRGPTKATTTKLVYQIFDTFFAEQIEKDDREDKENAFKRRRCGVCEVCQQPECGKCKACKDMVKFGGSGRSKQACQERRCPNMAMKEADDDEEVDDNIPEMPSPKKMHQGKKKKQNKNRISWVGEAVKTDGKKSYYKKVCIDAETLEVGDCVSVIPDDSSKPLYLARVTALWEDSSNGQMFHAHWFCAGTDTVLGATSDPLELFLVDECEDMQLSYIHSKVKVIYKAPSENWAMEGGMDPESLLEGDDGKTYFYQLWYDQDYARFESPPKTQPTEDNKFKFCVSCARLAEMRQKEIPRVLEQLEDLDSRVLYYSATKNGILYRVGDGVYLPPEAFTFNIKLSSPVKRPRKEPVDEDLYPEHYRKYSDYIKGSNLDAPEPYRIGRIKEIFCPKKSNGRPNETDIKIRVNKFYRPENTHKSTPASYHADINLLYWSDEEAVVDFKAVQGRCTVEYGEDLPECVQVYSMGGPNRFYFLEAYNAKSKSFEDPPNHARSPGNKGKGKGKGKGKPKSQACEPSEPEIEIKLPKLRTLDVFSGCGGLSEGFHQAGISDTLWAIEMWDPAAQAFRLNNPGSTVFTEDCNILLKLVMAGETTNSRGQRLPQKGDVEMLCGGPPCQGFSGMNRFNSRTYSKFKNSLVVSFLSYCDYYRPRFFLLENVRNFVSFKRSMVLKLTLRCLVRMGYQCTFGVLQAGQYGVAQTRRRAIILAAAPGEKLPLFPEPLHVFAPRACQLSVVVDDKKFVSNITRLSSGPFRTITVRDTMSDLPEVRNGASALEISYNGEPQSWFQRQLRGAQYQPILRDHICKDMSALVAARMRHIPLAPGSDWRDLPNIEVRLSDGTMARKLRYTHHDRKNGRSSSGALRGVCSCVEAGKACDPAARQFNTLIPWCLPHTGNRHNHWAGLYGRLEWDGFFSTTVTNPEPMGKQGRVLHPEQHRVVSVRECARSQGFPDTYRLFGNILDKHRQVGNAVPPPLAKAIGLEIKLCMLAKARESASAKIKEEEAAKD
Sequence of Muscarinic acetylcholine receptor M3 (P20309 whole entry): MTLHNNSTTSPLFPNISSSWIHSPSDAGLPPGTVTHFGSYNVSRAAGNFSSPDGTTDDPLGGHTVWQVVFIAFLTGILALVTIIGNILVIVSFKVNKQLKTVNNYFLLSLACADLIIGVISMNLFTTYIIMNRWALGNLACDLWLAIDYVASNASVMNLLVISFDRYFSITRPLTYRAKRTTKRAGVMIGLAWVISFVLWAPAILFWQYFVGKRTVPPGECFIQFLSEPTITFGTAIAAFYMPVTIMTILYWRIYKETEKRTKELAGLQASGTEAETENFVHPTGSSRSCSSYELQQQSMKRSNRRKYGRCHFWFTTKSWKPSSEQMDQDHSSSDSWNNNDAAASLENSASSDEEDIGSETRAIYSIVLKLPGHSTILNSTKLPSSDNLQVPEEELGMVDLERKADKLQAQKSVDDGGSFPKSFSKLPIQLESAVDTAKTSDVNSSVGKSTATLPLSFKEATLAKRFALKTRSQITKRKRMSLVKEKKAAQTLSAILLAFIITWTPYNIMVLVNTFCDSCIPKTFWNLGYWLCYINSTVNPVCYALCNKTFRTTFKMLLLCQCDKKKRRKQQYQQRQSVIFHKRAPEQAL
Sequence of Induced myeloid leukemia cell differentiation protein Mcl-1 (Q07820 whole entry): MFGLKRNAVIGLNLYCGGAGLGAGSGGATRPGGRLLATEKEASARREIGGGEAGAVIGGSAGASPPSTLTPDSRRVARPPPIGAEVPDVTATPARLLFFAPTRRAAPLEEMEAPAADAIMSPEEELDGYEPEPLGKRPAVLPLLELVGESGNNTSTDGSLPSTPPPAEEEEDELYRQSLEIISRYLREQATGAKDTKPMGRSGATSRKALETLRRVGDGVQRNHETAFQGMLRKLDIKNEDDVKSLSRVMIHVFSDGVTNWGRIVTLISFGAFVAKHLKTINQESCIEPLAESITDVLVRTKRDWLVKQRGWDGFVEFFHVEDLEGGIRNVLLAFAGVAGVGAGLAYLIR
Sequence of 26S proteasome non-ATPase regulatory subunit 14 (O00487 whole entry): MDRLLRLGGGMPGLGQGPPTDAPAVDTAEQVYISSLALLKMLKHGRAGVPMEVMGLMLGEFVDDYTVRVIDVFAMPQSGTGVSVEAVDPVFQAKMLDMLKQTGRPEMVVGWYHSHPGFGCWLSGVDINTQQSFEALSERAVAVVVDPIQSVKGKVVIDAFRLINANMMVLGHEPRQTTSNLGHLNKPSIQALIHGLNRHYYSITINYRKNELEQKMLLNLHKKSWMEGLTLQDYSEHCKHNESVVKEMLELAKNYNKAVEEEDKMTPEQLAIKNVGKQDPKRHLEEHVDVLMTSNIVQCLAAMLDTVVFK

Structure (SMILES): O=C1NN(c2ccc(F)c(Cl)c2)C(=O)/C1=C\c1ccco1
- EC50 (Bcl-2-like protein 10): 33.4 µM (active)

Structure (SMILES): O=C(O)c1cccc(NC(=S)N/N=C/c2ccccc2OCc2cccc(Br)c2)c1
- IC50 (Beta-lactamase [1]): > 59.6 µM (inactive)
- IC50 (Leucine aminopeptidase): 15.8 µM (active)
- IC50 (Beta-lactamase [2]): > 59.6 µM (inactive)
- IC50 (Beta Lactamase [3]): 9.15 µM (active)
- IC50 [4]: 44.4 µM (active)
- IC50 (Beta-lactamase [5]): > 59.6 µM (inactive)
- IC50 (Beta Lactamase [6]): 1.16 µM (active)
- IC50 [7]: > 50 µM (not active)
- IC50 [8]: 5.97 µM (active)
- IC50 [9]: 15.8 µM (active)

Structure (SMILES): Cc1ccc(-n2cccc2/C=C2/C(=N)N3C(=NC2=O)SN=C3S(C)(=O)=O)cc1Cl
- IC50 (Aminopeptidase N): 15 µM (active)
- IC50 [10]: 28.9 µM (active)
- IC50 [11]: 1.86 µM (active)
- IC50 [12]: 7.72 µM (active)
- IC50 [13]: 13.4 µM (active)
- IC50 [14]: > 100 µM (inactive)
- IC50 (Prothrombin): 21.1 µM (active)
- AC50 [15]: 8.75 µM (active)

Structure (SMILES): CCOC(=O)N1CCC(NCCNC(=O)c2cccs2)CC1
- EC50 [16]: 48.9 µM (inconclusive)
- EC50 [17]: 88.4 µM (inconclusive)
- EC50 [18]: 77 µM (inconclusive)
- EC50 [19]: 14.4 µM (inconclusive)

Structure (SMILES): CCOc1ccccc1C(=O)Nc1cccc(-c2ccc3nncn3n2)c1
- CC50 [20]: > 40 µM (active)
